Data from ChEMBL document CHEMBL1153655, “Rational design and synthesis of a novel, selective class of thrombin inhibitors: P1-argininal derivatives incorporating P3P4 quaternary lactam dipeptide surrogates” (Bioorg Med Chem Lett, 1997).

Columns and labels:
Serine protease 1 = Serine protease 1 (Homo sapiens, UniProt P07477); experiment: The compound was tested in vitro for inhibitory activity against human trypsin
Coagulation factor X [1] = biological target: T1, Coagulation factor X (Homo sapiens, UniProt P00742); experiment: The compound was tested in vitro for inhibitory activity against Coagulation factor X
Prothrombin = Prothrombin (Homo sapiens, UniProt P00734); experiment: The compound was tested in vitro for inhibitory activity against Coagulation factor II
Coagulation factor X [2] = biological target: T1, Coagulation factor X; experiment: The compound was tested in vitro for inhibitory activity against Coagulation factor X; Inactive
Coagulation factor X [3] = biological target: T1, Coagulation factor X; experiment: The compound was tested in vitro for inhibitory activity against Coagulation factor X; inactive

Chain of Serine protease 1 (P07477 whole entry): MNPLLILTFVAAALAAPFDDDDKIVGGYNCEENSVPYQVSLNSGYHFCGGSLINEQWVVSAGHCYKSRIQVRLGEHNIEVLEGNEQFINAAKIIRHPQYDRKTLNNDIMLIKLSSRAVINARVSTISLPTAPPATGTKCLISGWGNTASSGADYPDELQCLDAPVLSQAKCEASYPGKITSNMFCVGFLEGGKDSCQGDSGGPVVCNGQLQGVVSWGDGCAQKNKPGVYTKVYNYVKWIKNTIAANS
T1 sequence (P00742 41-179 limits assumed): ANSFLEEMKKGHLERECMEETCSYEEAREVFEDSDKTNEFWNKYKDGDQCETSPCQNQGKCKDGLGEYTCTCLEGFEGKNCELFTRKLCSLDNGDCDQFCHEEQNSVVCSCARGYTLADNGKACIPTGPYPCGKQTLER
T1 sequence (P00742 235-488 limits assumed): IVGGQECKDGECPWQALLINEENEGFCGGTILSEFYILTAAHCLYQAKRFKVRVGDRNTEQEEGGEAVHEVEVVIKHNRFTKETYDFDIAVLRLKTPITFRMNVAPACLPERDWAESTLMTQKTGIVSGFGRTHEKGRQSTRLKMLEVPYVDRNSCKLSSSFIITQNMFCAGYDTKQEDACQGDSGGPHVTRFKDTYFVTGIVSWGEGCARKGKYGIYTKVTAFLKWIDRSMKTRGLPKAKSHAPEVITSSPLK

Compound	IC50 (Serine protease 1)	IC50 (Coagulation factor X [1])	IC50 (Prothrombin)	IC50 (Coagulation factor X [2])	IC50 (Coagulation factor X [3])
COC(=O)NC1(Cc2ccccc2)CCCCN(CC(=O)N[C@H]2CCCN(C(=N)N)C2O)C1=O (some centres undefined)	2500 nM	2500 nM	466 nM	–	–
N=C(N)N1CCC[C@H](NC(=O)CN2CCC[C@@](N)(Cc3ccccc3)C2=O)C1O.O=C(O)C(F)(F)F (some centres undefined)	139 nM	–	2.07 nM	Not Active	–
CS(=O)(=O)NC1(Cc2ccccc2)CCCN(CC(=O)N[C@H]2CCCN(C(=N)N)C2O)C1=O (some centres undefined)	52.2 nM	> 2500 nM	31.9 nM	–	–
N=C(N)N1CCC[C@H](NC(=O)CN2CCC[C@H](NS(=O)(=O)Cc3ccccc3)C2=O)C1O (some centres undefined)	1270 nM	> 2500 nM	–	–	–
N=C(N)N1CCC[C@H](NC(=O)CN2CCC[C@](N)(Cc3ccccc3)C2=O)C1O.O=C(O)C(F)(F)F (some centres undefined)	2500 nM	–	138 nM	–	Not Active
N=C(N)N1CCC[C@H](NC(=O)CN2CC[C@@](N)(Cc3ccccc3)C2=O)C1O (some centres undefined)	1380 nM	2500 nM	1380 nM	–	–
N=C(N)N1CCC[C@H](NC(=O)CN2CCC(NS(=O)(=O)Cc3ccccc3)C2=O)C1O (some centres undefined)	538 nM	> 2500 nM	125 nM	–	–
N=C(N)N1CCC[C@H](NC(=O)CN2CCCC[C@H](NS(=O)(=O)Cc3ccccc3)C2=O)C1O (some centres undefined)	152 nM	22.8 nM	0.71 nM	–	–
N=C(N)N1CCC[C@H](NC(=O)CN2CCCC[C@@](N)(Cc3ccccc3)C2=O)C1O (some centres undefined)	969 nM	> 2500 nM	14.9 nM	–	–
N=C(N)N1CCC[C@H](NC(=O)CN2CCCC[C@](N)(Cc3ccccc3)C2=O)C1O.O=C(O)C(F)(F)F (some centres undefined)	2500 nM	–	193 nM	Not Active	–
